The source of these data is patent publication US3932384A, “Dibenzazecines” (Shionogi & Co., Ltd., priority 1972, dated 1976).

Series [1] is described as follows: Acute toxicity (mortality, LD50) in mice. The following applies: mouse, in vivo; DS-mice; mortality during 72 hours after administration; Bliss' method. On the procedure: Ten DS-mice (15 to 17 g body weight, male and female) in every group are used in the test at each dose level. Each assay compound is tested in 4 to 5 doses. The mortality is counted during a period of 72 hours after the administration of the test compound. The LD50 is calculated by the Bliss' method.

The subject of series [2] is DS-mice. Briefly: Analgesic activity (Haffner method), tail-root pinch in mice. The class given is in vivo. The settings on record: Mus musculus, tail-root pinch with forceps, no withdrawal response within 3 seconds, Bliss' method, read-out: Analgesic action, Haffner (ED50). On the procedure: 2. Analgesic activity (Haffner method);
The tail-roots of DS-mice (15 to 17 g body weight, male and female) are pinched with a pair of forceps. Pain responses, such as biting, head turning and vocalization are observed. All of the control animals respond to the noxious stimulus with in a period of one second. […] The ED50 is calculated by the Bliss' method [Ann. Appl. Biol., 22, 134; 307 (1935); Quat. J. Pharmacol., 11, 192 (1938)].

Series [3] has as its system DS-mice. In words: Analgesic activity (Writhing method), phenylquinone-induced writhing in mice. The following applies: Mus musculus, ip, 0.25 h, phenylquinone i.p. 0.2 mg/10 g, 15 minutes, up-and-down method, read-out: Analgesic action, Writhing (ED50). The series is classed as in vivo. As for the experimental part: 1. Analgesic activity (Writhing method);
DS-mice (15 to 17 g body weight, male and female) are treated with an intraperitoneal injection of 0.2 mg/10 g of 0.02 % phenylquinone solution as a writhing inducer and kept in an individual observation cage for 15 minutes after the administration of phenylquinone. […] The ED50 is calculated by the up-and-down method of Brownlee et al. [Fed.
(In general: Writhing tests count abdominal constrictions after an irritant is injected.)

The LD50 is the dose at which mortality reaches 50%. One may read the ED50 as the midpoint of the dose-response relation. In series [1], `Cc1c(N(C)C)c(=O)n(-c2ccccc2)n1C` [Aminopyrine, reference compound] showed an LD50 at 72 h of 335 mg/kg. The median effective dose (ED50) in the series with DS-mice [2] amounted to 138 mg/kg; in the series with DS-mice [3] it was 44 mg/kg.
For `CN1CCc2ccc(O)cc2CCc2ccc(O)c(O)c2C1` [Compound 1], in series [1], the LD50 at 72 h fell in the range of 50 to 100 mg/kg. In the series with DS-mice [3], the median effective dose (ED50) was 26 mg/kg.
In turn, `COc1ccc2c(c1OC)CN(C)CCc1ccc(O)cc1CC2` [Compound 2, 3,4-Dimethoxy-11-hydroxy-6-methyl-5,6,7,8.13,14-hexahydrodibenz[c,g]azecine] gave a 50% lethal dose (LD50) at 72 h in series [1] of 54.9 mg/kg. Further, the results for the median effective dose (ED50) in the series on DS-mice [2] and in the series with DS-mice [3] were 58 mg/kg and 23.2 mg/kg, respectively.
In series [1], `COc1ccc2c(c1OC)CN(C)CCc1cc(O)ccc1CC2` [Compound 3, 3,4-Dimethoxy-10-hydroxy-6-methyl-5,6,7,8,13,14-hexahydrodibenz[c,g]azecine] returned a median lethal dose (LD50) at 72 h of 231 mg/kg. For the same compound, the ED50 came out at 37.9 mg/kg in the series with DS-mice [2] and 22.3 mg/kg in the series with DS-mice [3].
As to `COc1ccc2c(c1OC)CN(C)CCc1cc(CO)c(O)cc1CC2` [Compound 4, 3,4-dimethoxy-11-hydroxy-10-hydroxymethyl-6-methyl-5,6,7,8,13,14-hexahydrodibenz[c,g]azecin], the LD50 at 72 h in series [1] is above 500 mg/kg. For the same compound, the median effective dose (ED50) in the series on DS-mice [3] worked out at 45 mg/kg.
As to `CN1CCc2ccc(O)cc2CCc2cccc(O)c2C1.[O-][Cl+3]([O-])([O-])O` [Compound 5, 4,11-Dihydroxy-6-methyl-5,6,7,8,13,14-hexahydrodibenz[c,g]azecine perchlorate], in series [1], the median lethal dose (LD50) at 72 h is 300 mg/kg. Further, the ED50 with DS-mice [3] amounted to 50 mg/kg.
The matching figures for `Br.CN1CCc2cc(O)ccc2CCc2ccc(O)c(O)c2C1` [Compound 6, 6-Methyl-3,4,10-trihydroxy-5,6,7,8,13,14-hexahydrodibenz[c,g]azecine hydrobromide]: 300 mg/kg and 75 mg/kg.
Take `COc1ccc2c(c1OC)CNCCc1cc(O)ccc1CC2` [Compound 7, 3,4-dimethoxy-10-hydroxy-5,6,7,8,13,14-hexahydrodibenz[c,g]azecine]: the LD50 at 72 h in series [1] stood at 500 mg/kg. The values for the median effective dose (ED50) in the series on DS-mice [2] and in the series on DS-mice [3] were 250 mg/kg and 26.5 mg/kg, respectively.
